Measured values as given in PMC8032764 (Scientific Reports, 2021).

Experiments:
human GABAA α5β3γ2 = human GABAA α5β3γ2 (Homo sapiens, UniProt P18507+P31644); assay: Two-electrode voltage clamp in Xenopus oocytes, current induced by EC10 of GABA; type: cell-based; design: expressed in transfected cells; host or cells: Xenopus laevis oocytes, cRNA injection
Method: Freshly prepared oocytes of maturation stage VI were bought from Ecocyte Bioscience (Castrop-Rauxel, Germany) and, after overnight delivery, plated into 96-well plates (Greiner no. 651101) for microinjection on a ROBOOCYTE R16 system (Multichannel Systems MCS GmbH, Reutlingen, Germany). Each oocyte was injected with roughly 50 nL of RNA solution. The solution for expressing receptors composed of the human α1, β2 and γ2 subunits contained 3 pg/nL of α1 and β2 RNA and 15 pg/nL of γ2 RNA. The solution for expressing human α2β3γ2 receptors contained 2.5 pg/nL of α2 and β3 RNA, 5 pg/nL of γ2 RNA and 10 pg/nL of GABARAP RNA. The solution for expressing human α3β3γ2 receptors contained 1.3 pg/nL of α3 and β3 RNA and 6.5 pg/nL of γ2 RNA. The solution for expressing human α5β3γ2 receptors contained 1.3 pg/nL of α5 and β3 RNA and 13 pg/nL of γ2 RNA. […] After the microinjection the oocytes were kept at 20 °C temperature until the electrophysiological experiment. Experiments were done 3 to 5 days later on the ROBOOCYTE instrument which employs the two-microelectrode voltage-clamp technique for membrane voltage control and current measurement. […] During current recording and compound testing the cell membrane was constantly clamped to − 80 mV. Current signals were recorded and stored on a PC-type computer using the ROBOOCYTE software.
During the microinjection and up to the electrophysiological experiment the oocytes were kept in a solution containing 88 mM NaCl, 1 mM KCl, 2.5 mM NaHCO3, 10 mM HEPES (AppliChem GmbH, Darmstadt, Germany), 0.82 MgSO4, 0.33 mM Ca(NO3)2, 0.33 mM CaCl2, 100 U/mL penicillin (GIBCO, ThermoFisher Scientific) and 100 µg/mL streptomycine (GIBCO, ThermoFisher Scientific). The pH was adjusted to 7.5. During the experiment the voltage-clamped oocyte was constantly superfused by a solution containing 90 mM NaCl, 1 mM KCl, 5 mM HEPES (AppliChem), 1 mM MgCl2 and 1 mM CaCl2 (pH 7.4). GABA and test compounds were added to this solution. GABA concentrations were chosen according to previously determined concentration–response relations for the different human GABAA receptor subunit combinations. Concentrations evoking approximately 10% of a maximal response were selected, i.e., 8 µM for α1β2γ2, 6 µM for α2β3γ2, 10 µM for α3β3γ2 and 5 µM for α5β3γ2. Solutions containing GABA or test compounds were freshly prepared at least every second day. […] Compounds were further diluted in DMSO and finally in extracellular saline to reach a DMSO concentration of 0.1%. The same amount of DMSO was added to the control solutions without test compounds.
During the experiment the solutions were fed into the well containing the voltage-clamped oocyte via Teflon tubings connected by electromagnetic valves which allowed rapid switching between different solutions (controlled by the ROBOCYTE software). Approximately 1–2 min after impaling an oocyte and switching to voltage-clamp mode GABA was applied for 90 s to record a control response. Thereafter the oocyte was washed with saline for 160 s followed by another 90 s GABA application. Then 30 s after the onset of the second GABA application the system switched to a solution containing GABA plus the test compound. Each oocyte was used for testing one concentration of a single test compound (for α5β3γ2: 1 nM: n = 8, 10 nM: n = 8, 100 nM: n = 7, 1000 nM: n = 7).
In this case each GABA application lasted 110 s and the rest period between the two GABA applications was 190 s long.
On each 96-well plate 3–6 oocytes were used for testing a known NAM at the BZD binding site, β-CCM (FG7106), as a positive control. […] Maximally effective concentrations of β-CCM were used for each subunit combination, i.e., 100 nM β-CCM for α1β2γ2, 300 nM for α2β3γ2 or α3β3γ2 and 1 µM for α5β3γ2.

rats = assay: GLP toxicology and safety pharmacology, daily oral administration; type: in vivo, rat; conditions: supra-therapeutic plasma exposures, up to 26 weeks
Muscarinic M5 = test system: T1, Muscarinic M5; assay: Cerep binding; design: species or system human; conditions: 10 μM; [3H]4-DAMP; hum. recomb. (CHO)
T1 construct: host or cells: CHO

[1] = test system: healthy male and female volunteers; assay: Study WP29402 drug-drug interaction with itraconazole; type: in vivo, human
Text: 3) Study WP29402 Drug-Drug Interaction (DDI) Itraconazole in Healthy Volunteers This was an open-label, three treatment, fixed sequence crossover study to investigate the […]
healthy male and female volunteers (age range 18-60 years; n: 12). As systemic basmisanil exposure was predicted to be higher than exposures achiev ed in previous clinical studies, regular EEG examinations were included and reviewed by a neurologist. Multiple oral doses […]
with the CYP3A inhibitor, itraconazole (200 m g OD).
Baseline EEG assessments were performed prior to the study (resting EEG eyes open/closed, intermittent photic stimulation, hyperventilation). On treatment days (1, 3, 5, 8) […]
hours and resting EEG eyes open/closed w ere performed. […]
administered with itraconazole.

Chemokine CXCR2 (IL-8B) = test system: T2, Chemokine CXCR2 (IL-8B); assay: Cerep binding; design: species or system human; conditions: 10 μM; [125I]IL-8; hum. recomb. (HEK-293)
T2 construct: purchased Eurofins Cerep

[2] = concentration–response curve, n = 7
[3] = 240 mg BID with itraconazole 200 mg OD versus alone

human GABAA α5β3γ2, sequence (P31644 32-462): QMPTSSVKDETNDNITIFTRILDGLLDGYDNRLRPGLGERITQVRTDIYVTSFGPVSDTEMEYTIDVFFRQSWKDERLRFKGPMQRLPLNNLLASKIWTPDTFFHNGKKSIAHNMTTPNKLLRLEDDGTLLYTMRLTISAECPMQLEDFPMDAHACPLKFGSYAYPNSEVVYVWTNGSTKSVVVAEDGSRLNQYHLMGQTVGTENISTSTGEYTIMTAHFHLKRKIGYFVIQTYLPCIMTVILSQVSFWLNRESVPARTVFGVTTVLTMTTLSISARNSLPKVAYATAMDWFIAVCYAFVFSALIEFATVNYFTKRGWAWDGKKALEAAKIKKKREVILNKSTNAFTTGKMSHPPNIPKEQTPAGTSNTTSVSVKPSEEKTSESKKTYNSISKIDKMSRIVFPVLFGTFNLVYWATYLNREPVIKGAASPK
human GABAA α5β3γ2, sequence (P28472 26-473 partner): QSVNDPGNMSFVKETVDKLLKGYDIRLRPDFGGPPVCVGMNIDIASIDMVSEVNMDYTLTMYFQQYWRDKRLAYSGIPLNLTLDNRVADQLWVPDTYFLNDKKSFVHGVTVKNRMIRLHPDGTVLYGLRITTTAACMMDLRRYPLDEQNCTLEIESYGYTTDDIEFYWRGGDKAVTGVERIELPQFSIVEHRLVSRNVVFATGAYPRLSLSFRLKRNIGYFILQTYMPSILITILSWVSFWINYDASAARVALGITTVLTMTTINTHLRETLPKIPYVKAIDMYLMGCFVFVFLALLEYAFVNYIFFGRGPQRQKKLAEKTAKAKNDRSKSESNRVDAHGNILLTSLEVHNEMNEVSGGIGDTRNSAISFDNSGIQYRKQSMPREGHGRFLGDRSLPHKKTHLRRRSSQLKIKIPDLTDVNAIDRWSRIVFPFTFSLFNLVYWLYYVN
human GABAA α5β3γ2, sequence (P18507 40-475): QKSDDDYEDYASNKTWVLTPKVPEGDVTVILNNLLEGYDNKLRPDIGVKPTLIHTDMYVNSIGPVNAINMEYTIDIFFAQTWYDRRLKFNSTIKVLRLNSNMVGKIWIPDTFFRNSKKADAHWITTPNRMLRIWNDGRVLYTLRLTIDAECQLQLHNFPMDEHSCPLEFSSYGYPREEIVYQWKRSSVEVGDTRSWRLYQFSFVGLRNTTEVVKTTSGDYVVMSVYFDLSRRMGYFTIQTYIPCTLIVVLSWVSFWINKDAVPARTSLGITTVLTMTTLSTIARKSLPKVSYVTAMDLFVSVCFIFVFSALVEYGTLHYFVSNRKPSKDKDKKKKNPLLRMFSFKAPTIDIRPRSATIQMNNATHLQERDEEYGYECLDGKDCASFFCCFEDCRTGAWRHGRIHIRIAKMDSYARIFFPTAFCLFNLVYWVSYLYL

## Cc1onc(-c2ccc(F)cc2)c1COc1ccc(C(=O)N2CCS(=O)(=O)CC2)cn1 [basmisanil]
Human GABAA α5β3γ2; 100 nM basmisanil + flumazenil 30 or 1000 nM
  decrease of GABA-induced current under co-treatment with flumazenil: blocked by co-treatment with flumazenil
Human GABAA α5β3γ2; 1 µM, highest concentration tested, 5 µM GABA
  reduction of the GABA-evoked current: 42 ± 1%
Human GABAA α5β3γ2; [2]
  Hill slope: 0.9
  IC50: 8 nM
rats
  convulsions and EEG alterations: no convulsions and no EEG alterations
Muscarinic M5
  % Inhibition: -7%
[1]; 240 mg BID alone
  maximum plasma concentration: 3510 ng/mL
[1]; 240 mg BID co-administered with itraconazole 200 mg OD
  maximum plasma concentration: 14500 ng/mL
[1]; [3]
  increase in maximum plasma concentration: 312%
  increase in systemic exposure at steady state: 374%
[1]; DDI study, n = 12
  maximum plasma concentration: approximately 14,500 ng/mL
[1]; co-administered with itraconazole
  EEG findings: no epileptiform discharges
Chemokine CXCR2 (IL-8B)
  % Inhibition: -3%
